What all share (test): NCI anticancer screen, dose series, 48 h
The test system of assay [1] is HL-60.
Assay [2] deals with MDA-MB-231.
The test system of assay [3] is MDA-N.
The test system of assay [4] is T47D.
The test system of assay [5] is EKVX.
Assay [6] concerns SK-MEL-5.
Assay [7] deals with NCI-H23.
Assay [8] concerns SNB-75.
In assay [9] the test system is SF-539.
Assay [10] deals with A549.
Assay [11] deals with OVCAR-5.
Assay [12] deals with SW-620.
Assay [13] deals with SR.
The test system of assay [14] is CCRF-CEM.
Assay [15] deals with UACC-62.
The test system of assay [16] is MOLT-4.
Assay [17] deals with SK-MEL-2.
The test system of assay [18] is M14.
Assay [19] concerns SNB-19.

Molecules are shown by their SMILES.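 Grown in 96-well plates, cells were treated for 48 hours with each compound at five concentrations. Insufficient inhibition: endpoint recorded as highest concentration tested. The concentration for 50% growth inhibition is given as GI50.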 Active and inactive are the calls of the source. Cut-off read from the data, not from the text of the source: active = GI50 up to about 1.1 µM and inactive = higher.

With `c1nc(NCCc2c[nH]cn2)c2nc[nH]c2n1`, the GI50 in assay [1] was 26.7 µM (inactive); in [2] it was > 100 µM (inactive); in assay [3] it was > 100 µM (inactive); in assay [4], > 100 µM (inactive); in [5], 46.2 µM (inactive); in assay [6] it was > 100 µM (inactive). Moreover, the GI50 in [7] was > 100 µM (inactive); in assay [8] it was 64.3 µM (inactive); in [9], > 100 µM (inactive); in assay [10] it was > 100 µM (inactive); in [11], > 100 µM (inactive); in [12], > 100 µM (inactive). The GI50 in assay [13], in assay [14], in assay [15], in assay [16], in assay [17] and in assay [18] was > 100 µM (inactive) throughout. Further, the GI50 in assay [19] is > 100 µM (inactive).
As for `CCC1OC(=O)CC(O)C(C)C(OC2OC(C)CC(N(C)C)C2O)C(CC=O)CC(C)C(=O)/C=C/C2(C)OC2C1C` (stereo not given), the GI50 in assay [1] was 12.8 µM (inactive); in assay [2], 28.3 µM (inactive); in [3], 25.8 µM (inactive); in assay [4] it was 19.9 µM (inactive); in assay [5], 15.6 µM (inactive); in assay [6], 15.2 µM (inactive). Also, the GI50 in assay [7] was 19 µM (inactive); in assay [8], 19.3 µM (inactive); in assay [9], 6.62 µM (inactive); in [10] it was 49.4 µM (inactive); in assay [11], 41.3 µM (inactive); in assay [12] it was 17 µM (inactive). Moreover, the GI50 in [13] is 13.9 µM (inactive); in [14], 4.91 µM (inactive); in assay [15] it was 14.1 µM (inactive); in [16] it was 16.5 µM (inactive); in [17], 45.2 µM (inactive); in assay [18] it was 31 µM (inactive). Besides, in assay [19], the GI50 was 16.9 µM (inactive).
Regarding `CC1(C)OC(CP(c2ccccc2)c2ccccc2)C(CP(c2ccccc2)c2ccccc2)O1` (stereo not given), the GI50 in [1] was 0.0443 µM (active); in [2] it was 1.22 µM (inactive); in assay [3], 1.52 µM (inactive); in assay [4], 0.345 µM (active); in assay [5] it was 0.914 µM (active); in assay [6], 2.13 µM (inactive). Besides, the GI50 in [7] was 0.485 µM (active); in assay [8], 1.36 µM (inactive); in [9], 2.1 µM (inactive); in assay [10], 0.27 µM (active); in [11] it was 2.25 µM (inactive); in assay [12], 1.17 µM (inactive). Moreover, the GI50 in assay [13] was 0.552 µM (active); in assay [14], 0.794 µM (active); in assay [15] it was 1.97 µM (inactive); in assay [16], 0.254 µM (active); in assay [17] it was 1.81 µM (inactive); in assay [18] it was 1.79 µM (inactive). Moreover, the GI50 in assay [19] is 0.601 µM (active).
Consider `CCN(CC)c1ccc(NC(=S)NN(C)C)cc1`, for which the GI50 in [1], in assay [2], in assay [3], in assay [4], in [5] and in [6] was > 10 µM (inactive) throughout. For the same compound, the GI50 in assay [7], in assay [8], in [9], in [10], in [12] and in [13] was > 10 µM (inactive) throughout. The GI50 in assay [14], in assay [15], in assay [16], in assay [17], in assay [18] and in assay [19] was > 10 µM (inactive) throughout.
As to `CCOC(=O)c1nc2cc(C(F)(F)F)ccc2nc1Oc1ccc(C(=O)OC)cc1`, the GI50 is 35.1 µM (inactive) in assay [1]; > 100 µM (inactive) in assay [2]; > 100 µM (inactive) in assay [3]; > 100 µM (inactive) in [4]; > 100 µM (inactive) in assay [5]; > 100 µM (inactive) in assay [6]. For the same compound, the GI50 in assay [8], in [9], in assay [10], in assay [11], in assay [12] and in [13] was > 100 µM (inactive) in each case. Moreover, the GI50 in assay [14] was 97.1 µM (inactive); in assay [15], > 100 µM (inactive); in assay [16], > 100 µM (inactive); in assay [17] it was > 100 µM (inactive); in [18], 64.3 µM (inactive); in assay [19] it was > 100 µM (inactive).
With `C/C(=N\O)c1ccc(OCc2cc(C(F)(F)F)cc(C(F)(F)F)c2)cc1`, the GI50 in assay [1] is 4.13 µM (inactive); in assay [2] it was > 100 µM (inactive); in assay [3] it was 37.2 µM (inactive); in assay [4] it was 75.3 µM (inactive); in assay [5], 78.5 µM (inactive); in [6], 50.9 µM (inactive). Further, the GI50 in assay [7] is 95.3 µM (inactive); in assay [8], 51.9 µM (inactive); in [9] it was 60.5 µM (inactive); in [10], 46.1 µM (inactive); in [11] it was > 100 µM (inactive); in assay [12], 32 µM (inactive). Moreover, the GI50 is 39.4 µM (inactive) in [13]; 15.9 µM (inactive) in [14]; 14.3 µM (inactive) in assay [16]; 57.1 µM (inactive) in assay [17]; 41 µM (inactive) in assay [18]; 64.1 µM (inactive) in [19].
Turning to `COc1ccc(CN(Cc2ccc(OC)cc2)C(=O)CC2(O)C=CCC2)cc1` (stereo not given), the GI50 was 34.8 µM (inactive) in assay [1]; > 100 µM (inactive) in assay [2]; 72.9 µM (inactive) in assay [3]; 39.4 µM (inactive) in assay [4]; 46.1 µM (inactive) in [5]; 32.9 µM (inactive) in [6]. Further, the GI50 was > 100 µM (inactive) in [7]; 81.8 µM (inactive) in [8]; > 100 µM (inactive) in assay [9]; 46.2 µM (inactive) in [10]; > 100 µM (inactive) in assay [11]; > 100 µM (inactive) in assay [12]. Further, the GI50 in assay [13] is 36.1 µM (inactive); in assay [14] it was 47.6 µM (inactive); in [15], 57.7 µM (inactive); in [16], 31.6 µM (inactive); in assay [17] it was 56.6 µM (inactive); in assay [18], > 100 µM (inactive). Moreover, the GI50 in [19] was 71.9 µM (inactive).
For the compound `CS(=O)(=O)c1ccc(NNc2cc(=O)[nH]c(=O)[nH]2)cc1`, the GI50 in assay [1] was 52.7 µM (inactive); in assay [2] it was > 100 µM (inactive); in assay [3], > 100 µM (inactive); in assay [4], > 100 µM (inactive); in assay [6], > 100 µM (inactive); in assay [7], > 100 µM (inactive). Also, the GI50 in assay [8], in assay [9], in [10], in [11], in assay [12] and in [13] was > 100 µM (inactive) each time. The GI50 in assay [14], in [15], in assay [16], in assay [17], in [18] and in assay [19] was > 100 µM (inactive) in each case.
Regarding `Oc1ccc[nH]c1=[Se]`, the GI50 in assay [1] is > 100 µM (inactive); in [2], > 100 µM (inactive); in assay [3], 57 µM (inactive); in assay [4] it was 22.4 µM (inactive); in assay [5], 25.8 µM (inactive); in assay [6], 39.4 µM (inactive). For the same compound, the GI50 was 46.2 µM (inactive) in assay [7]; 92.3 µM (inactive) in assay [8]; 54.6 µM (inactive) in [9]; 32.9 µM (inactive) in [10]; 57.1 µM (inactive) in assay [11]; 77.6 µM (inactive) in [12]. The GI50 is 36.3 µM (inactive) in assay [13]; 35.3 µM (inactive) in assay [14]; > 100 µM (inactive) in [15]; > 100 µM (inactive) in assay [16]; > 100 µM (inactive) in assay [17]; 47.6 µM (inactive) in [18]. Also, in assay [19], the GI50 is 85.9 µM (inactive).
`C=CC[C@]12C=C(OC)[C@@H](O)[C@](OC)(C(c3cc(OC)c4c(c3)OCO4)[C@H]1C)[C@H]2OC(C)=O` (stereo not given in full): the GI50 was 91 µM (inactive) in assay [1]; > 100 µM (inactive) in assay [2]; > 100 µM (inactive) in assay [3]; > 100 µM (inactive) in assay [4]; > 100 µM (inactive) in assay [5]; > 100 µM (inactive) in assay [6]. Besides, the GI50 in assay [7] is > 100 µM (inactive); in assay [8], 40.7 µM (inactive); in assay [9], > 100 µM (inactive); in assay [10], > 100 µM (inactive); in [11], > 100 µM (inactive); in [12] it was > 100 µM (inactive). For the same compound, the GI50 in assay [13] is > 100 µM (inactive); in assay [14] it was > 100 µM (inactive); in assay [15] it was > 100 µM (inactive); in assay [16], 67.5 µM (inactive); in [17] it was > 100 µM (inactive); in assay [18] it was > 100 µM (inactive). Moreover, the GI50 in assay [19] is > 100 µM (inactive).
`COc1cc2c(cc1C[N+](C)(C)CSc1ccccc1)-c1ccccc1CC2`: the GI50 in assay [1] was 0.721 µM (active); in assay [2] it was 2.86 µM (inactive); in [3], 1.77 µM (inactive); in assay [4], 2.91 µM (inactive); in assay [5] it was 10.6 µM (inactive); in [6] it was 1.17 µM (inactive). Further, the GI50 in [7] was 3.76 µM (inactive); in [8] it was 1.19 µM (inactive); in assay [9] it was 7.96 µM (inactive); in [10], 19 µM (inactive); in [11] it was 12 µM (inactive); in assay [12], 10.4 µM (inactive). For the same compound, the GI50 in assay [13] was 2.01 µM (inactive); in assay [14], 3.64 µM (inactive); in assay [15], 2.52 µM (inactive); in assay [16] it was 2.33 µM (inactive); in assay [17], 2 µM (inactive); in assay [18], 2.07 µM (inactive). Also, the GI50 in [19] was 4.28 µM (inactive).

The record behind these values is ChEMBL document CHEMBL1201862, “PubChem BioAssay data set” (2004).
